SMILES strings stand for the structures.

A short description of series [1]: COS/H2S release monitored by PNA formation (UV-Vis) in PBS containing CA. The conditions noted are these: for half-life at 50 μM: PBS containing carbonic anhydrase (CA); for half-life at 50 μM / kobs (COS/H2S releasing kinetics): 37° C.; for kobs (COS/H2S releasing kinetics): CA 25 μg/mL, 50 μM; for krel: relative to γ-KetoTCM-1 at pH 7.4. The series is classed as physicochemical. How it is done:
To investigate COS/H2S release from donor compound embodiments, γ-KetoTCM-1 (50 μM) was incubated in PBS (pH 7.4, 10 mM) containing CA (25 μg/mL) and H2S release was detected by monitoring para-nitroaniline (PNA) formation at 37° C. In particular, a γ-KetoTCM-1 stock solution (15.0 μL, 10.0 mM in DMSO) was added to 3.00 mL of PBS (pH 6.00, 7.40 or 8.00, 10.0 mM) containing CA (25.0 μg/mL) in a quartz UV cuvette. The absorbance (250-500 nm) was measured and recorded by using Agilent Cary 100 or Cary 60 UV-Vis spectrometers at 37° C. kobs was then obtained by plotting the absorbance ratio of PNA and γ-KetoTCM-1 versus time and t1/2 was calculated by dividing In(2) by kobs.
In this example, pH effects on COS/H2S release were investigated by incubating γ-KetoTCM-1 (50 μM) in PBS (pH 6.0-8.0) and monitoring with a UV-Vis spectrometer. […] In particular, a γ-KetoTCM-1 stock solution (15.0 μL, 10.0 mM in DMSO) was added to 3.00 mL of PBS (pH 6.00, 10.0 mM) containing CA (25.0 μg/mL) in a 3-mL UV cuvette. The absorbance (250-500 nm) was measured and recorded at 37° C. kobs was then obtained by plotting the absorbance ratio of PNA and γ-KetoTCM-1 vs time.

A short description of series [2]: COS/H2S release monitored by PNA formation (UV-Vis) in PBS containing BSA and CA. The series is classed as physicochemical. On the procedure:
In this example, compound activation and subsequent COS/H2S release in PBS containing bovine serum albumin (BSA) was evaluated to mimic a complex biological environment. γ-KetoTCM-1 (50 μM) was incubated in PBS (pH 7.4, 10 mM) containing BSA (5 mg/mL) and CA (25 μg/mL) at 37° C. In particular, A γ-KetoTCM-1 stock solution (15.0 μl_, 10.0 mM in DMSO) was added to 3.00 mL of PBS (pH 7.40, 10.0 mM) containing BSA (5.00 mg/mL) and CA (25.0 μg/mL) in a quartz UV cuvette. The absorbance (250-500 nm) was measured and recorded by using an Agilent Cary 100 UV-Vis spectrometer at 37° C.

Series [3] is described as follows: Effects of cellular nucleophiles on COS/H2S release (PNA formation, UV-vis). The series is classed as physicochemical. As to conditions: PBS pH 7.4, Cys, NAC, Hcy, GSH, Lys, Ser, Gly, GSSG, 4-hour incubation, 37° C. How it is done: To determine the effects of cellular nucleophiles on COS/H2S release, γ-KetoTCM-1 was incubated in […] PBS buffer (pH 7.4, 10 mM) containing (1) no cellular nucleophile (FIG. 4, bar 1); or 250 μM of Cys (FIG. 4, bar 2), 250 μM of N-acetyl cysteine (NAC) (FIG. 4, bar 3), 250 μM of homocysteine (Hcy) (FIG. 4, bar 4), 250 μM of GSH […] (FIG. 4, bar 5), 250 μM of lysine (Lys) (FIG. 4, bar 6), 250 μM of serine (Ser) (FIG. 4, bar 7), 250 μM of glycine (Gly) (FIG. 4, bar 8), or 250 μM of oxidized glutathione (GSSG) (FIG. 4, bar 9) at 37° C. PNA formation was monitored and recorded after a 4-hour incubation using UV-vis spectroscopy.

A further series relates to HeLa cells. Nature of the series: H2S delivery in HeLa cells imaged with SF7-AM fluorescent probe. The series is classed as cell-based. The conditions noted are these: 100 μM, 2 hours. How it is done: In this example, it was evaluated whether γ-KetoTCM-based donors can be activated to deliver H2S in cellular environments. SF7-AM, a cell-trappable H2S fluorescent probe, was used to monitor H2S accumulation from γ-KetoTCM-1 in HeLa cells. In the absence of γ-KetoTCM-1, no fluorescent signal from SF7-AM was observed, indicating negligible endogenous H2S (FIG. 9, left column, including the top and bottom images).
HeLa cells were plated in poly-D-lysine coated plates (MatTek) containing 2.00 mL of DMEM and incubated at 37° C. under 5% CO2 for 24 hours. The confluent cells were washed with PBS and then co-incubated with SF7-AM (5.00 μM) and NucBlue nuclear dye (2 drops) for 30 minutes. The cells were then washed with PBS and incubated with either γ-KetoTCM-1 (100 μM) or γ-KetoCM-1 (100 μM) alone for 2 hours. Prior to imaging, the cells were washed with PBS and bathed in 2.00 mL of PBS. Cell imaging was performed on a Leica DMi8 fluorescent microscope.

Series [4] relates to macrophage RAW 264.7 cells. Briefly: LPS-induced NO2− formation in macrophage RAW 264.7 cells (Griess). The conditions noted are these: 25 μM pretreatment 6 hours, LPS 1.0 μg/mL 18 hours. Type of series: cell-based. How it is done: In this example, the ability of embodiments of the disclosed donor compound to provide anti-inflammatory activity was evaluated. To investigate the potential protective effects of the developed donors, pretreated macrophage RAW 264.7 cells were pretreated with γ-KetoTCM-1 (25 μM) for 6 hours, followed by an 18-hour incubation with lipopolysaccharide (LPS, 1.0 μg/mL) to induce an inflammatory response. This response is accompanied by an increase in NO production, which was monitored by measuring nitrite (NO2−) accumulation. To determine whether the observed effects were due to COS/H2S release, control experiments with γ-KetoTCM-3, γ-KetoCM-1, and GYY4137 under the identical condition also were performed. GYY4137 was used as a positive control because it has shown anti-inflammatory effects previously, and because it generates a slow, continuous release of H2S.
In this example, macrophage RAW 264.7 cells were seeded in a 24-well plate (5×10^5 cells/well) containing 0.50 mL of DMEM and incubated at 37° C. under 5% CO2 for 24 hours. The confluent cells were washed with PBS and incubated with either γ-KetoTCM-1, γ-KetoTCM-3, γ-KetoCM-1, or GYY4137 (25.0 μM) at 37° C. for 6 hours. Compounds were then removed by washing cells with PBS and these pretreated cells were incubated in FBS-free DMEM containing LPS (1.00 μg/mL) for 18 hours. NO2− levels were measured by using a Griess Reagent Kit.
Background: Nitrite, measured by Griess reagent, commonly stands in for NO production.

As to `CC(=O)CCOC(=S)Nc1ccc([N+](=O)[O-])cc1` [γ-KetoTCM-1], the half-life at 50 μM in series [1] (pH 6, pH 6.0 PBS, ln(2)/kobs) is 3040 ± 48 min; in series [1] (pH 7.4, pH 7.4 PBS, ln(2)/kobs), 256 min; in series [1] (pH 8, pH 8.0 PBS), 91.8 ± 1.8 min; in series [2] (PBS containing BSA and carbonic anhydrase (CA), pH 7.4 PBS containing BSA (5 mg/mL), 37° C.) it was 14.4 ± 0.6 min. Further, the “kobs (COS/H2S releasing kinetics)” value in series [1] (pH 6.0 PBS) was 0.380 ± 0.006 ×10^−5 s^−1; in series [1] (pH 7.4 PBS), 4.52±0.02 ×10^−5 s^−1; in series [1] (pH 8.0 PBS) it was 12.6 ± 0.2 ×10^−5 s^−1; in series [2] (pH 7.4 PBS containing BSA (5 mg/mL), CA, 37° C.) it was 81.0 ± 3.0 ×10^−5 s^−1. In addition, the krel stood at 0.084 in series [1] (pH 6.0 PBS); 1.00 in series [1] (pH 7.4 PBS); 2.79 in series [1] (pH 8.0 PBS); 18.0 in series [2] (pH 7.4 PBS containing BSA (5 mg/mL), relative to pH 7.4 without BSA). Further, the “pseudo first-order rate constant kobs from fitting the UV-vis data” value in series [2] (PBS pH 7.4, BSA 5 mg/mL, CA, 37° C.) was 8.1±0.3 ×10^−4 s^−1. Besides, in series [3], the “PNA formation in presence of cellular nucleophiles versus background” value is reported as “None of the tested nucleophiles resulted in substantial PNA formation”. For the same compound, the “SF7-AM fluorescence (H2S accumulation)” value with HeLa cells is recorded as “significant increase in SF7-AM fluorescence”. Besides, the “effect on LPS-induced NO2− production” value in series [4] is recorded as “significantly reduced”.

For the origin of these results see patent US11981626B1, “Compound embodiments for hydrogen sulfide production and methods of making and using the same” (University of Oregon, priority 2018, dated 2024).
